Laboratory results: patent publication US6479466B1, “Compositions for treating viral infections, and methods therefor” (University of Maryland, priority 1999, dated 2002)
Where a name gives a salt, the structure may show the parent alone. Read-outs that look alike come from different tables or passages of the source.

Assays:
HTLV-IIIB [1] = assay: p24 antigen production in PHA-activated PBMCs infected with HTLV-IIIB; type: cell-based, HIV-1; details: for IC90: read-out: IC90 (concentration of nucleoside analog that reduced the p24 antigen value of the untreated control by 90%)
Description: The antiviral activities of RV alone and in combination with nucleoside analogs were investigated in PHA-stimulated PBMCs from seronegative donors. RV, ddC, ddI, and AZT were purchased from Sigma (St. Louis, Mo.). The HIV-1 T-cell line adapted isolate HTLV-IIIB was obtained from Dr. Gallo, at the National Institutes of Health AIDS Research and Reference Reagent Program (Catalog #398, Rockville, Md.). Primary strains of HIV-1 were isolated by coculturing 10^7 patient PBMC with an equal number of PHA-stimulated PBMC from a normal donor. Titration of stocks and MT-2 phenotype determination were carried out as described (ACTG Virology Manual, NIH Pub No. 94 3828, 1994). The SI phenotype was determined by assessing viral growth and syncytia formation in the MT-2 cell line obtained from Dr. Richman at the National Institutes of Health AIDS Research and Reference Reagent Program (Catalog #237, Rockville, Md.).
Primary PBMCs were separated from whole blood of HIV seronegative donors by density centrifugation over Ficoll-Hypaque (Sigma). The culture medium consisted of RPMI supplemented with 10% fetal bovine serum (FBS), 2 mM glutamine and penicillin/streptomycin (Gibco, Grand Island, N.Y.).
For infection studies involving PBMCs, cells were stimulated with 2.5 or 10 μg/ml phytohemagglutinin (PHA; Boehringer Mannheim, Indianapolis, Ind.) for 3 days. Stimulated PBMCs were infected by incubation with virus at a multiplicity of infection of 1000 TCID50/10^6 PBMC for 2 hours. PBMCs were then washed three times with PBS and cultured in 5% CO2 at 37° C., in RPMI/10% FBS supplemented with 10 units/ml IL-2 (Boehringer Mannheim) and drugs as appropriate. PBMCs were seeded in 96-well flat-bottom plates at a density of 2×10^5 PBMCs/200 μl. Following 3 days of culture half of the medium was replaced with fresh medium containing IL-2 and drugs. After 7 days of culture, HIV-1 p24 antigen production in the culture supernatant was assayed by ELISA (Coulter, Hialeah, Fla.). The concentration of nucleoside analog, alone and in combination with resveratrol, that reduced the p24 antigen value of the untreated control by 90% (IC90) was calculated by using nonparametric regression analysis. The analysis used the median-effect equation, Fa=1/[1+(Dm/D)]^m, where D is the dose, Fa is the fraction affected, and Dm is the dose required to produce the median effect.
Cells were infected with the T-cell tropic isolate HTLV-IIIB for 2 hours, and then cultured in varying concentrations of RV with or without nucleoside analogs. Virus replication was measured by p24 antigen production by ELISA using a standard commercial kit in the culture supernatants on days 7 and 10 after infection.
Activated PBMCs infected with HTLV-IIIB were cultured in the presence of ddI plus HU (100 μM) or RV (5 and 10 μM). […] Virus production in the presence of the different drug concentrations was evaluated on day 7 after infection.

HTLV-IIIB [2] = assay: p24 antigen in infected resting T-lymphocytes exposed to drugs for 6 days before PHA activation; type: cell-based, HIV-1; details: ddC 0.1 μM or AZT 4 μM in combination with RV
Description: The effect of RV and nucleoside analogues in infected resting T-lymphocytes was evaluated in the present example. Purified resting cells were used. Absence of activated lymphocytes in the preparation was determined by incubation of the cells in the presence of a monoclonal antibody directed against the low affinity IL-2 receptor CD25 (Pharmingen, San Diego, Calif.), and subsequent analysis by flow cytometry. […] Cells were infected with HTLV-IIIB at a multiplicity of infection of 10^4 TCID50/10^6 cells for 3 hours. A high multiplicity of infection (m.o.i.) was used because of a reported short half life of HIV-1 unintegrated DNA in infected resting lymphocytes. Infected cells were washed 3 times with PBS to remove virus excess and resuspended in 10% FBS RPMI medium supplemented with drugs. To ensure that any antiviral activity exerted by the drugs occurred during the resting state, drugs were removed six days after infection by washing with PBS 3 times, and cells were activated by culturing in the presence of PHA for 2 days. Cells were then cultured in IL-2 medium without drugs, and supernatants were monitored for the presence of p24 antigen. Cultures were maintained for 20 days.
Purified resting T-lymphocytes from a seronegative donor were infected with HTLV-IIIB at the high multiplicity of infection and cultured in the presence of 5 or 10 μM RV plus ddI (0, 0.25, 0.5 μM), ddC (0, 0.1 μM) or AZT (0, 4 μM) for 6 days. Concentrations used for ddC and AZT correspond to the highest, nontoxic concentration attainable in plasma of treated individuals. […] On day 6 after infection, drugs were washed away and cells were activated with PHA. The extent of viral replication was evaluated on day 6 (prior to PHA activation) and days 14 and 20 after infection. On day 6 very low amounts of p24 antigen could be detected under every condition tested, likely representing residual virus from the infecting inoculum. […] No toxicity was found by the MTT assay in uninfected culture controls treated with 5 μM RV and 0.5 μM ddI for 20 days under the same conditions.

PHA-stimulated PBMCs = assay: MTT cell proliferation assay in PHA-stimulated PBMCs; type: cell-based, human; details: human, 5 days, 100 μM
Description: The effect of RV and […] on PBMC proliferation at the concentrations shown to enhance the anti-HIV effect of ddI were examined. Cellular proliferation in culture in the presence or absence of drugs was measured by commercial MTT assay, according to the manufacturer's instructions (Boehringer Mannheim). Cell viability was determined by trypan blue staining.
Proliferation was measured on PHA-stimulated PBMCs cultured in the presence of IL-2, 2 μM ddI, and RV or HU. The MTT assay was performed on days 2 and 5 (FIG. 8), and days 2 and 7 (FIG. 20) after the addition of the drugs. […] On day 5, RV at 10 μM inhibited proliferation by 30%, whereas HU inhibited proliferation by 40 to 50%, depending on the donor.
Proliferating PBMCs were cultured in the presence of RV or HU for 5 days. On day 2 and 5 an MTT assay and a ^3H-thymidine incorporation assay were performed. The MTT is a […] assay that measures cellular metabolic activity and directly correlates to the number of cells in the culture. The ^3H-thymidine incorporation assay relies on the incorporation of the radioactive nucleoside ^3H-thymidine into newly synthesized DNA. […] These differences between the effects of RV and HU were even more striking in the MTT and ^3H-thymidine incorporation assays conducted on day 5 (FIG. 12 and FIG. 13, respectively).

PHA-activated PBMCs = assay: 3H-thymidine incorporation (DNA synthesis) assay in proliferating PBMCs; type: cell-based, human; details: HU 100 μM; day 2
Description: For example, a thymidine incorporation assay using PBMC's may be carried out as follows. PBMC's are suspended, then 0.1 ml (100,000) of cells are added to each designated well of a 96-well plate. The plates are placed into a 37° C., 5% CO2, 95% humid incubator for the predetermined incubation periods—normally 2 and 5 days. At the end of the incubation period, and at a standard time prior to harvesting the plate (6-18 hours), 1.0-1.5 μCi (20 μl of 50-75 mCi/ml in complete medium) of [^3H]-labeled methyl thymidine is added to each well of the assay. The plates are then incubated for the remaining 6-18 hours. At the end of the [^3H]-thymidine pulse, the plates are harvested onto filter paper using a semi-automated multi-well harvester. The filter paper containing bound DNA may be dried using either ethanol or by moderate microwave heating. The filter paper samples are counted in a scintillation counter using standard procedures.

[3] = test system: mutations 65R, 74V, 184V, and 115F in the RT gene; details: cited from earlier work

Cc1cn([C@H]2C[C@H](N=[N+]=[N-])[C@@H](CO)O2)c(=O)[nH]c1=O [AZT, 3′-azido-2′,3′-dideoxythymidine]
IC90 (HTLV-IIIB [1]; Human immunodeficiency virus 1, IIIB, PBMC, 168 h, in combination with 5 μM RV, day 7): 15 nM
IC90 (HTLV-IIIB [1]; Human immunodeficiency virus 1, IIIB, PBMC, 168 h, nucleoside analog alone, day 7): 25 nM
reduction of IC90 value (HTLV-IIIB [1]; in combination with 5 μM RV): 1.6 fold
reduction of IC90 value (HTLV-IIIB [1]; in the presence of 10 μM RV): 3.1 fold
virus replication after PHA activation (HTLV-IIIB [2]): failed to suppress virus replication

NC(=O)NO [HU, Hydroxyurea]
reduction of virus production (HTLV-IIIB [1]; HU 100 μM alone, day 7): approximately 20%
inhibition at 100 µM (HTLV-IIIB [1]; Human immunodeficiency virus 1, IIIB, PBMC, 168 h, 100 μM HU combined with 0.5 μM ddI, day 7, read-out: inhibition of virus replication): > 99%
inhibition at 100 µM (HTLV-IIIB [1]; Human immunodeficiency virus 1, IIIB, PBMC, 168 h, 100 μM HU in combination with 0.25 μM ddI, day 7, read-out: inhibition of HIV-1 replication): 91%
inhibition of proliferation (PHA-stimulated PBMCs): 40 to 50%
3H-thymidine incorporation (DNA synthesis) (PHA-activated PBMCs): much lower than the untreated control

Nc1nc(NC2CC2)c2ncn([C@H]3C=C[C@@H](CO)C3)c2n1 [abacavir, (1C, CiS)-4-(2-amino-6-(cyclopropylamino)—9H-purin-9-yL)-2-cyclopentene-1-methanol sulfate (salt) (2:1)]
resistance to the drug ([3]; mutants harboring 2 or 3 of these mutations): approximately 10 fold
decrease in susceptibility ([3]; single mutations 65R, 74V, 184V, and 115F): 2-3 fold

Nc1ccn([C@H]2CC[C@@H](CO)O2)c(=O)n1 [ddC, 2′,3′-dideoxycytosine]
reduction of IC90 value (HTLV-IIIB [1]; in combination with 5 μM RV): 3.3 fold
IC90 (HTLV-IIIB [1]; in combination with 5 μM RV, day 7): 80 nM
reduction of IC90 value (HTLV-IIIB [1]; in the presence of 10 μM RV): 5.4 fold
IC90 (HTLV-IIIB [1]; nucleoside analog alone, day 7): 270 nM
virus replication after PHA activation (HTLV-IIIB [2]): failed to suppress virus replication
